In BindingDB's records for doi:10.1021/jm00164a009 (Research Biochemicals, 1990):

Experiments:
[1] = Ability to inhibit [3H]-SCH- 23390 binding to Dopamine receptor D1 of canine striatal membranes
[2] = as above; remark: listed apart in the source

Row | Ki [1] [nM] | Kd [2] [nM] | Compound
1 | 28 |  | CN1CCc2cc(I)c(O)cc2[C@@H](c2ccc(N=[N+]=[N-])cc2)C1
2 |  | 0.28 | CN1CCc2cc(I)c(O)cc2[C@H](c2ccc(N=[N+]=[N-])cc2)C1
